Data: ChEMBL document CHEMBL1201862, “PubChem BioAssay data set” (2004)
The source made the active and inactive calls.

Key:
Insulin-degrading enzyme [1] = target: T1, Insulin-degrading enzyme (Homo sapiens, UniProt P14735); assay: activators of recombinant IDE enzyme, dose response, counter-screen for IDE activator project, biochemical, fluorescence polarization (AID 588681)
T1 sequence (P14735 whole entry): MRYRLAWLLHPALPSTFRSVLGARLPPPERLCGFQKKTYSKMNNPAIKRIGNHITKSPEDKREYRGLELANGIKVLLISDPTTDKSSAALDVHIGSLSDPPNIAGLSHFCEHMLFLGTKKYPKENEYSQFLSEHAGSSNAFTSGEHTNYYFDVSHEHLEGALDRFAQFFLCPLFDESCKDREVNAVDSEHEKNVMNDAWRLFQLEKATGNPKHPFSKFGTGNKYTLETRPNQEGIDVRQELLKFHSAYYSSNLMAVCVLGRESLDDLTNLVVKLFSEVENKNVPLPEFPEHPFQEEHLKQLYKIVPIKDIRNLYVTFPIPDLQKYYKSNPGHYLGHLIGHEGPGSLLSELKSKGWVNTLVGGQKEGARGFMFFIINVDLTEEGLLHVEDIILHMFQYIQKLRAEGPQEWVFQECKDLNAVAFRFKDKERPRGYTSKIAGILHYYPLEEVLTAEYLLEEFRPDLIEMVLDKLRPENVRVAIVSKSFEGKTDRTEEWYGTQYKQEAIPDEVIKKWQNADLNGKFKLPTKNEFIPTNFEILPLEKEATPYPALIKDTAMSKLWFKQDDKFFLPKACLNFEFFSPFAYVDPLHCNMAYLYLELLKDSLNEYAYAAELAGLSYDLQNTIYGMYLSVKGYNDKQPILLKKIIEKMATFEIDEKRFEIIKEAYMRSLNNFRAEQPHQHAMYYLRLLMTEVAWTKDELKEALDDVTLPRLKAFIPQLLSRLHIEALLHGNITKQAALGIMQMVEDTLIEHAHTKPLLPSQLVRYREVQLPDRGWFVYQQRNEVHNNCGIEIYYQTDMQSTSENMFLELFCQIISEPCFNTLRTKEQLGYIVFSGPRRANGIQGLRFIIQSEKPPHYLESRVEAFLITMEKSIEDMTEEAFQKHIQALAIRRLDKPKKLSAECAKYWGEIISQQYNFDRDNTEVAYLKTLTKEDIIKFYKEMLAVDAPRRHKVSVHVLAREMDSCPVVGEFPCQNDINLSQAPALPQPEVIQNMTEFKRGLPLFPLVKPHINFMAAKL

HEK293 [2] = assay: HEK cell cytotoxicity by LDH release, dose response, cytotoxicity control for IDE activator project, fluorescence, HEK cells (AID 588440); assay type: functional, cell-based; settings: Homo sapiens;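 also: cytotoxicity by LDH release measuring loss of membrane integrity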
Insulin-degrading enzyme [3] = target: T1, Insulin-degrading enzyme; assay: activators of endogenous IDE in HEK cells, dose response, cell-based, fluorescence polarization (AID 588439); assay type: functional
HEK293 [4] = assay: optical interference in Abeta FP readout, dose response, artefact control for IDE activator project, biochemical, fluorescence polarization (AID 588442); assay type: functional, cell-based; settings: Homo sapiens
[5] = target: Multidrug resistance protein CDR1 (Candida albicans, UniProt P43071); assay: CaCDR1 efflux pump inhibitors in yeast, dose response, S. cerevisiae AD1-8u, singleplex, Cherry Pick1 hits (AID 588606); assay type: functional
Sequence of Multidrug resistance protein CDR1 (P43071 whole entry, looked up): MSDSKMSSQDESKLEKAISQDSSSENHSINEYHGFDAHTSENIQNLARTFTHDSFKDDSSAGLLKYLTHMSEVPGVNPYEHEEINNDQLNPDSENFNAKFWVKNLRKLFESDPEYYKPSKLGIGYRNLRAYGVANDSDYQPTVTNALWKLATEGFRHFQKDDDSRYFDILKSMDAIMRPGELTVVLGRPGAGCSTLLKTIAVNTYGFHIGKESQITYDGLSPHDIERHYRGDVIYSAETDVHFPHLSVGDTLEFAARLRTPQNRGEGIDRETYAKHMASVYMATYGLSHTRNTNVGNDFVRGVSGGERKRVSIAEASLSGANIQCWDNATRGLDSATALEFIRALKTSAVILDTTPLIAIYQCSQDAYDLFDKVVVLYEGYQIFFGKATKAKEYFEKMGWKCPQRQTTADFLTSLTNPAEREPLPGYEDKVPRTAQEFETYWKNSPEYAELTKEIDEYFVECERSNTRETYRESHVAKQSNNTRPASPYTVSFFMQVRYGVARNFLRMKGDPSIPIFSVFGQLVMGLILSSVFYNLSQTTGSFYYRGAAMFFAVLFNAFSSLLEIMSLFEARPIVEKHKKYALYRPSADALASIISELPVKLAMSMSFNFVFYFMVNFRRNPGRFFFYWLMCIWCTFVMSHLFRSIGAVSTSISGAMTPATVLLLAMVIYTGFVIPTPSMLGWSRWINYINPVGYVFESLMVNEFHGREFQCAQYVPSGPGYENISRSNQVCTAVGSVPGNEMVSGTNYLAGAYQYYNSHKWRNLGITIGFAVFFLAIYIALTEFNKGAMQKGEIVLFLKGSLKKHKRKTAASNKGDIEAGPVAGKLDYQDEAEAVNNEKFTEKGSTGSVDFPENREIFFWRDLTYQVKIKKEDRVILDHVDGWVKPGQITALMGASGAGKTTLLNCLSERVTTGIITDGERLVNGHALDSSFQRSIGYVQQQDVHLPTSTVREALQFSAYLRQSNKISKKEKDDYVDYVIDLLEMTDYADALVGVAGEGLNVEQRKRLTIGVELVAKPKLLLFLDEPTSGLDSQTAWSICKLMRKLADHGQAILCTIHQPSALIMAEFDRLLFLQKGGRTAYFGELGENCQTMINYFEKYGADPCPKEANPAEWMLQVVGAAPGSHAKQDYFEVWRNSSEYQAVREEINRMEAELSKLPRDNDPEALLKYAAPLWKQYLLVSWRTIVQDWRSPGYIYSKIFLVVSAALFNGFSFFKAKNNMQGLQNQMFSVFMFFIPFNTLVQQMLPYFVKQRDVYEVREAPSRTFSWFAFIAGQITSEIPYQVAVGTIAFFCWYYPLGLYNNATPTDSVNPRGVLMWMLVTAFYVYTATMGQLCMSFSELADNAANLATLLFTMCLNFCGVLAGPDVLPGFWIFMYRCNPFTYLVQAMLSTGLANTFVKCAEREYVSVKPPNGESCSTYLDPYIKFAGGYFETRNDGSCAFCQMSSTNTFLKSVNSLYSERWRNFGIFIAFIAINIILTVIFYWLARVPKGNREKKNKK

Melanocortin receptor 4 = Melanocortin receptor 4 (Homo sapiens, UniProt P32245); assay: MC4R antagonist potency on cAMP, dose response, cell-based, TR-FRET, biased antagonists (AID 602298); assay type: functional;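 also: antagonist potency against agonist-stimulated cAMP production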
Sequence of Melanocortin receptor 4 (P32245 whole entry): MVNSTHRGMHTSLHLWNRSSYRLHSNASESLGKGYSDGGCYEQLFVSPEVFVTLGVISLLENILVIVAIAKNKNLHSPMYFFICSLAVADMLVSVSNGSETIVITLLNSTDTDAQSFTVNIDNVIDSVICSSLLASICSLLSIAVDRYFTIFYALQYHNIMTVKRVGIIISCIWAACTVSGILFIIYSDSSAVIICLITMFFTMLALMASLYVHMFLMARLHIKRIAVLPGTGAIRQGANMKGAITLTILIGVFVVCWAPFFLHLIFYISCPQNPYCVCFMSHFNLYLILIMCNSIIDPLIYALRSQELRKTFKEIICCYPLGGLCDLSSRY

[6] = nonselective inhibitors of cellular cAMP signaling, dose response, counter-screen for MC4R biased antagonist project, cell-based, TR-FRET cAMP detection (AID 602305); assay type: functional;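 also: U2OS cells stimulated with forskolin near its EC80 as the cAMP inducer; potency is for inhibition of forskolin-stimulated cAMP signaling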

## CCc1ccc(-c2nc(C[S+]([O-])CC(=O)O)c(C)o2)cc1 (configuration not stated)
Insulin-degrading enzyme [1]
  EC50: > 54.7 µM (inactive)
HEK293 [2]
  IC50: > 89.2 µM (inactive)
Insulin-degrading enzyme [3]
  EC50: > 54.7 µM (inactive)
HEK293 [4]
  EC50: > 55.9 µM (inactive)

## CCOc1ccc(NC(=O)CSc2nnc(Cc3cccn3C)n2-c2ccc(F)cc2)cc1
[5]
  EC50: 0.013 µM (active)

## CCc1cc2ccc(OC)cc2nc1SCC(=O)N1CCN(C(=O)c2ccco2)CC1
Melanocortin receptor 4
  IC50: > 64.6 µM (inactive)
[6]
  IC50: > 64.6 µM (inactive)
